Test results published in ChEMBL document CHEMBL6109161, “Novel Pyrazolo[1,5-a]pyrimidine-3,5-diamines as nSMase2 Inhibitors” (ACS Med Chem Lett, 2025).

Assay: Inhibition of recombinant human neutral sphingomyelinase 2 using […] as substrate in presence of alkaline phosphatase, choline oxidase and horseradish peroxidase by fluorescence-based coupled assay

SMILES	IC50 [nM]
CC1CCCN1c1ccn2ncc(N(C)C)c2n1 (stereo unspecified)	70
CN(C)c1cnn2ccc(NCc3ccccc3)nc12	80
CN(C)c1ccc(CNc2ccn3ncc(N(C)C)c3n2)cc1	100

The next compounds have a lower IC50 than those just listed; values first:

IC50 [nM]	SMILES
60	CN(C)c1cnn2ccc(N3CCOCC3)nc12
30	COc1ccc(CNc2ccn3ncc(N(C)C)c3n2)cc1OC
40	CN(C)c1cnn2ccc(NCc3ccc(C(F)(F)F)cc3)nc12
